# Measurements: ChEMBL document CHEMBL1671662, “In vitro activities of telavancin and six comparator agents against anaerobic bacterial isolates” (2009)
# Assays:
# Assay type in all cases: functional
# Finegoldia magna = test: Antibacterial activity against Finegoldia magna by CLSI M11-A6 agar dilution method
# [1] = system: Peptoniphilus asaccharolyticus; test: Antibacterial activity against Peptoniphilus asaccharolyticus by CLSI M11-A6 agar dilution method
# Prevotella oris = test: Antibacterial activity against Prevotella oris by CLSI M11-A6 agar dilution method; conditions: Segatella oris
# Clostridium glycolicum = test: Antibacterial activity against Clostridium glycolicum by CLSI M11-A6 agar dilution method; conditions: Terrisporobacter glycolicus
# Ruminococcus torques = test: Antibacterial activity against Ruminococcus torques by CLSI M11-A6 agar dilution method; conditions: Mediterraneibacter torques
# [2] = system: Streptococcus intermedius; test: Antibacterial activity against Streptococcus intermedius by CLSI M11-A6 agar dilution method
# [3] = system: Paraclostridium bifermentans; test: Antibacterial activity against Clostridium bifermentans by CLSI M11-A6 agar dilution method
# Clostridium bolteae = test: Antibacterial activity against Clostridium bolteae by CLSI M11-A6 agar dilution method; conditions: Enterocloster bolteae
# [4] = system: Catenibacterium mitsuokai; test: Antibacterial activity against Catenibacterium mitsuokai by CLSI M11-A6 agar dilution method
# [5] = system: Propionibacterium propionicum; test: Antibacterial activity against Propionibacterium propionicus by CLSI M11-A6 agar dilution method; conditions: Arachnia propionica
# Bifidobacterium breve = test: Antibacterial activity against Bifidobacterium breve by CLSI M11-A6 agar dilution method
# [6] = system: Peptostreptococcus anaerobius; test: Antibacterial activity against Peptostreptococcus anaerobius by CLSI M11-A6 agar dilution method
# Odoribacter splanchnicus = test: Antibacterial activity against Bacteroides splanchnicus by CLSI M11-A6 agar dilution method
# Clostridium bartlettii = test: Antibacterial activity against Clostridium bartlettii by CLSI M11-A6 agar dilution method; conditions: Intestinibacter bartlettii
# [7] = system: Clostridium sporosphaeroides; test: Antibacterial activity against Clostridium sporosphaeroides by CLSI M11-A6 agar dilution method; conditions: Faecalispora sporosphaeroides
# Prevotella buccae = test: Antibacterial activity against Prevotella buccae by CLSI M11-A6 agar dilution method; conditions: Segatella buccae
# Actinomyces naeslundii = test: Antibacterial activity against Actinomyces naeslundii by CLSI M11-A6 agar dilution method
# Parabacteroides merdae = test: Antibacterial activity against Parabacteroides merdae by CLSI M11-A6 agar dilution method
# Anaerococcus tetradius = test: Antibacterial activity against Anaerococcus tetradius by CLSI M11-A6 agar dilution method
# [8] = system: Sutterella wadsworthensis; test: Antibacterial activity against Sutterella wadsworthensis by CLSI M11-A6 agar dilution method
# Prevotella disiens = test: Antibacterial activity against Prevotella P disiens by CLSI M11-A6 agar dilution method
# Coriobacterium = test: Antibacterial activity against […] by CLSI M11-A6 agar dilution method
# Prevotella bivia = test: Antibacterial activity against Prevotella bivia by CLSI M11-A6 agar dilution method
# [9] = system: Bifidobacterium pseudolongum; test: Antibacterial activity against Bifidobacterium pseudolongum by CLSI M11-A6 agar dilution method
# [10] = system: Ruminococcus flavefaciens; test: Antibacterial activity against Ruminococcus flavefaciens by CLSI M11-A6 agar dilution method
# [11] = system: Coprobacillus cateniformis; test: Antibacterial activity against Coprobacillus cateniformis by CLSI M11-A6 agar dilution method
# [12] = system: Streptococcus constellatus; test: Antibacterial activity against Streptococcus constellatus by CLSI M11-A6 agar dilution method
# Clostridium tertium = test: Antibacterial activity against Clostridium tertium by CLSI M11-A6 agar dilution method
# Prevotella denticola = test: Antibacterial activity against Prevotella P denticola by CLSI M11-A6 agar dilution method
# Clostridium hathewayi = test: Antibacterial activity against Clostridium hathewayi by CLSI M11-A6 agar dilution method; conditions: Hungatella hathewayi
# Prevotella intermedia = test: Antibacterial activity against Prevotella intermedia by CLSI M11-A6 agar dilution method
# Parvimonas micra = test: Antibacterial activity against Peptostreptococcus micros by CLSI M11-A6 agar dilution method
# Ruminococcus gnavus = test: Antibacterial activity against Ruminococcus gnavus by CLSI M11-A6 agar dilution method; conditions: Mediterraneibacter gnavus
# Bifidobacterium longum = test: Antibacterial activity against Bifidobacterium longum by CLSI M11-A6 agar dilution method
# [13] = system: Enterocloster clostridioformis; test: Antibacterial activity against Clostridium clostridioforme by CLSI M11-A6 agar dilution method
# [14] = system: Clostridium paraputrificum; test: Antibacterial activity against Clostridium paraputrificum by CLSI M11-A6 agar dilution method
# Clostridium disporicum = test: Antibacterial activity against Clostridium disporicum by CLSI M11-A6 agar dilution method
# Phocaeicola vulgatus = test: Antibacterial activity against Bacteroides vulgatus by CLSI M11-A6 agar dilution method
# Ruminococcus lactaris = test: Antibacterial activity against Ruminococcus lactaris by CLSI M11-A6 agar dilution method
# Bacteroides fragilis = test: Antibacterial activity against Bacteroides fragilis by CLSI M11-A6 agar dilution method
# [15] = system: Bifidobacterium adolescentis; test: Antibacterial activity against Bifidobacterium adolescentis by CLSI M11-A6 agar dilution method
# Ruminococcus albus = test: Antibacterial activity against Ruminococcus albus by CLSI M11-A6 agar dilution method; conditions: Hominimerdicola alba
# [16] = system: Parabacteroides distasonis; test: Antibacterial activity against Parabacteroides distasonis by CLSI M11-A6 agar dilution method
structure (smiles),measurement,setting,value
CC(=O)NC[C@H]1CN(c2ccc(N3CCOCC3)c(F)c2)C(=O)O1 [LINEZOLID],MIC50,Finegoldia magna,1 µg/mL
same,MIC90,Finegoldia magna,2 µg/mL
same,MIC50,[1],1 µg/mL
same,MIC90,[1],2 µg/mL
same,MIC50,Prevotella oris,2 µg/mL
same,MIC90,Prevotella oris,2 µg/mL
same,MIC50,Clostridium glycolicum,2 µg/mL
same,MIC90,Clostridium glycolicum,4 µg/mL
same,MIC50,Ruminococcus torques,2 µg/mL
same,MIC90,Ruminococcus torques,4 µg/mL
same,MIC50,[2],2 µg/mL
same,MIC90,[2],4 µg/mL
same,MIC50,[3],2 µg/mL
same,MIC90,[3],4 µg/mL
same,MIC50,Clostridium bolteae,4 µg/mL
same,MIC90,Clostridium bolteae,4 µg/mL
same,MIC50,[4],1 µg/mL
same,MIC90,[4],8 µg/mL
same,MIC50,[5],1 µg/mL
same,MIC90,[5],8 µg/mL
same,MIC50,Bifidobacterium breve,1 µg/mL
same,MIC90,Bifidobacterium breve,8 µg/mL
same,MIC50,[6],1 µg/mL
same,MIC90,[6],2 µg/mL
same,MIC,Odoribacter splanchnicus,2 µg/mL
same,MIC50,Odoribacter splanchnicus,2 µg/mL
same,MIC90,Odoribacter splanchnicus,4 µg/mL
same,MIC50,Clostridium bartlettii,2 µg/mL
same,MIC90,Clostridium bartlettii,4 µg/mL
same,MIC50,[7],2 µg/mL
same,MIC90,[7],4 µg/mL
same,MIC50,Prevotella buccae,2 µg/mL
same,MIC90,Prevotella buccae,2 µg/mL
same,MIC50,Actinomyces naeslundii,1 µg/mL
same,MIC90,Actinomyces naeslundii,8 µg/mL
same,MIC50,Parabacteroides merdae,4 µg/mL
same,MIC90,Parabacteroides merdae,4 µg/mL
same,MIC50,Anaerococcus tetradius,1 µg/mL
same,MIC90,Anaerococcus tetradius,2 µg/mL
same,MIC,[8],> 128 µg/mL
same,MIC50,[8],> 128 µg/mL
same,MIC90,[8],> 128 µg/mL
same,MIC50,Prevotella disiens,2 µg/mL
same,MIC90,Prevotella disiens,2 µg/mL
same,MIC50,Coriobacterium,1 µg/mL
same,MIC90,Coriobacterium,8 µg/mL
same,MIC50,Prevotella bivia,2 µg/mL
same,MIC90,Prevotella bivia,2 µg/mL
same,MIC50,[9],1 µg/mL
same,MIC90,[9],8 µg/mL
same,MIC50,[10],2 µg/mL
same,MIC90,[10],4 µg/mL
same,MIC50,[11],1 µg/mL
same,MIC90,[11],8 µg/mL
same,MIC50,[12],2 µg/mL
same,MIC90,[12],4 µg/mL
same,MIC50,Clostridium tertium,2 µg/mL
same,MIC90,Clostridium tertium,4 µg/mL
same,MIC50,Prevotella denticola,2 µg/mL
same,MIC90,Prevotella denticola,2 µg/mL
same,MIC50,Clostridium hathewayi,2 µg/mL
same,MIC90,Clostridium hathewayi,4 µg/mL
same,MIC50,Prevotella intermedia,2 µg/mL
same,MIC90,Prevotella intermedia,2 µg/mL
same,MIC50,Parvimonas micra,1 µg/mL
same,MIC90,Parvimonas micra,2 µg/mL
same,MIC50,Ruminococcus gnavus,2 µg/mL
same,MIC90,Ruminococcus gnavus,2 µg/mL
same,MIC50,Bifidobacterium longum,1 µg/mL
same,MIC90,Bifidobacterium longum,8 µg/mL
same,MIC50,[13],4 µg/mL
same,MIC90,[13],4 µg/mL
same,MIC50,[14],2 µg/mL
same,MIC90,[14],4 µg/mL
same,MIC50,Clostridium disporicum,2 µg/mL
same,MIC90,Clostridium disporicum,4 µg/mL
same,MIC50,Phocaeicola vulgatus,2 µg/mL
same,MIC90,Phocaeicola vulgatus,4 µg/mL
same,MIC50,Ruminococcus lactaris,2 µg/mL
same,MIC90,Ruminococcus lactaris,4 µg/mL
same,MIC,Bacteroides fragilis,4 µg/mL
same,MIC50,Bacteroides fragilis,4 µg/mL
same,MIC90,Bacteroides fragilis,8 µg/mL
same,MIC50,[15],1 µg/mL
same,MIC90,[15],8 µg/mL
same,MIC50,Ruminococcus albus,2 µg/mL
same,MIC90,Ruminococcus albus,4 µg/mL
same,MIC50,[16],4 µg/mL
same,MIC90,[16],4 µg/mL
Cc1ncc([N+](=O)[O-])n1CCO [METRONIDAZOLE],MIC50,Finegoldia magna,0.5 µg/mL
same,MIC90,Finegoldia magna,2 µg/mL
same,MIC50,[1],0.5 µg/mL
same,MIC90,[1],2 µg/mL
same,MIC50,Prevotella oris,0.5 µg/mL
same,MIC90,Prevotella oris,1 µg/mL
same,MIC50,Clostridium glycolicum,0.25 µg/mL
same,MIC90,Clostridium glycolicum,1 µg/mL
same,MIC50,Ruminococcus torques,≤ 0.12 µg/mL
same,MIC90,Ruminococcus torques,0.25 µg/mL
same,MIC50,[2],128 µg/mL
same,MIC90,[2],> 128 µg/mL
same,MIC50,[3],0.25 µg/mL
same,MIC90,[3],1 µg/mL
same,MIC50,Clostridium bolteae,≤ 0.12 µg/mL
same,MIC90,Clostridium bolteae,0.25 µg/mL
same,MIC50,[4],1 µg/mL
same,MIC90,[4],128 µg/mL
same,MIC50,[5],1 µg/mL
same,MIC90,[5],128 µg/mL
same,MIC50,Bifidobacterium breve,1 µg/mL
same,MIC90,Bifidobacterium breve,128 µg/mL
same,MIC50,[6],0.5 µg/mL
same,MIC90,[6],2 µg/mL
same,MIC50,Odoribacter splanchnicus,0.25 µg/mL
same,MIC90,Odoribacter splanchnicus,1 µg/mL
same,MIC50,Clostridium bartlettii,0.25 µg/mL
same,MIC90,Clostridium bartlettii,1 µg/mL
same,MIC50,[7],0.25 µg/mL
same,MIC90,[7],1 µg/mL
same,MIC50,Prevotella buccae,0.5 µg/mL
same,MIC90,Prevotella buccae,1 µg/mL
same,MIC50,Actinomyces naeslundii,1 µg/mL
same,MIC90,Actinomyces naeslundii,128 µg/mL
same,MIC50,Parabacteroides merdae,1 µg/mL
same,MIC90,Parabacteroides merdae,2 µg/mL
same,MIC50,Anaerococcus tetradius,0.5 µg/mL
same,MIC90,Anaerococcus tetradius,2 µg/mL
same,MIC50,[8],16 µg/mL
same,MIC90,[8],> 128 µg/mL
same,MIC50,Prevotella disiens,0.5 µg/mL
same,MIC90,Prevotella disiens,1 µg/mL
same,MIC50,Coriobacterium,1 µg/mL
same,MIC90,Coriobacterium,128 µg/mL
same,MIC50,Prevotella bivia,0.5 µg/mL
same,MIC90,Prevotella bivia,1 µg/mL
same,MIC50,[9],1 µg/mL
same,MIC90,[9],128 µg/mL
same,MIC50,[10],≤ 0.12 µg/mL
same,MIC90,[10],0.25 µg/mL
same,MIC50,[11],1 µg/mL
same,MIC90,[11],128 µg/mL
same,MIC50,[12],128 µg/mL
same,MIC90,[12],> 128 µg/mL
same,MIC50,Clostridium tertium,0.25 µg/mL
same,MIC90,Clostridium tertium,1 µg/mL
same,MIC50,Prevotella denticola,0.5 µg/mL
same,MIC90,Prevotella denticola,1 µg/mL
same,MIC50,Clostridium hathewayi,0.25 µg/mL
same,MIC90,Clostridium hathewayi,0.5 µg/mL
same,MIC50,Prevotella intermedia,0.5 µg/mL
same,MIC90,Prevotella intermedia,1 µg/mL
same,MIC50,Parvimonas micra,0.5 µg/mL
same,MIC90,Parvimonas micra,2 µg/mL
same,MIC50,Ruminococcus gnavus,0.25 µg/mL
same,MIC90,Ruminococcus gnavus,0.25 µg/mL
same,MIC50,Bifidobacterium longum,1 µg/mL
same,MIC90,Bifidobacterium longum,128 µg/mL
same,MIC,[13],≤ 0.12 µg/mL
same,MIC50,[13],≤ 0.12 µg/mL
same,MIC90,[13],≤ 0.12 µg/mL
same,MIC50,[14],0.25 µg/mL
same,MIC90,[14],1 µg/mL
same,MIC50,Clostridium disporicum,0.25 µg/mL
same,MIC90,Clostridium disporicum,1 µg/mL
same,MIC50,Phocaeicola vulgatus,0.5 µg/mL
same,MIC90,Phocaeicola vulgatus,1 µg/mL
same,MIC50,Ruminococcus lactaris,≤ 0.12 µg/mL
same,MIC90,Ruminococcus lactaris,0.25 µg/mL
same,MIC50,Bacteroides fragilis,1 µg/mL
same,MIC90,Bacteroides fragilis,2 µg/mL
same,MIC50,[15],1 µg/mL
same,MIC90,[15],128 µg/mL
same,MIC50,Ruminococcus albus,≤ 0.12 µg/mL
same,MIC90,Ruminococcus albus,0.25 µg/mL
same,MIC50,[16],1 µg/mL
same,MIC90,[16],2 µg/mL
